Source: patent US12605371B2, “Combination therapy for cancer” (The Board of Trustees of the Leland Stanford Junior …, priority 2020, dated 2026)
“Also recorded” adds a separate entry of the source.

What was measured:
B16 cells [1] = test: B16 pulmonary metastasis model, mice fed DE chow; assay type: in vivo, mouse
Description: Animals were monitored daily and sacrificed after 2 weeks. […] B16 metastasis model: 0.5×10^6 B16 cells were injected via tail vein into mice. After sacrifice, the lung was isolated and the number of metastatic nodules on surface was counted on both sides, before analyzing the left lobe for melanin determination. The left lobe of lung from each mouse was incubated in 1N NaOH/10% DMSO for 2 hr at 80° C. before centrifugation at 12,000 rpm for 10 min at room temperature. The absorbance at 470 nm of the supernatant was measured and compared to a standard of synthetic melanin (Sigma, St. Louis, MO). Lung was weighed before the start of process and melanin content was expressed as μg/mg protein determined by protein assay of lung tissue.

B16 tumors = test: B16 subcutaneous (flank) tumor model, mice fed dabigatran etexilate chow; assay type: in vivo, mouse
Description: B16 subcutaneous tumor inoculation: B16 cells were grown until confluent and 2×10^6 cells were inoculated subcutaneously into WT, OPN-KI and OPN-KO mice. Mice were monitored daily for tumor growth. Tumor size was measured and volume calculated using the equation (width×width×length)/2. Animals were euthanized using CO2 and blood collected by cardiac puncture and tumors were isolated carefully. Blood was centrifuged at 2500 rpm for 20 min to prepare plasma and stored at −80° C. Tumors were weighed and measured. Part of the tumor was stored in formaldehyde for immunohistochemistry, part of it was frozen and stored at −80° C. for preparation of tumor lysates for OPN ELISAs. […] Animals were monitored daily and sacrificed after 2 weeks.

[2] = tested on: factor Xa-protease-activated receptor 2 signaling in TAMs; settings: in vivo; cited from earlier work
B16 cells [3] = test: Cell migration assay (transwell), B16 cells; assay type: cell-based, mouse; settings: 10 nM, 24 hr
Description: Cell migration assay: 10^5 B16 cells were placed in the upper chamber of a 6.5 mm transwell with a pore size of 8.0 μm (Sigma, XX). Cells were allowed to settle before the lower chamber was filled with BSA or various OPN fragments (10 nM) in presence of 0.2 mM MnCl2 (Sigma, St Louis, MO) and incubated at 37° C. for 24 hr. Cells that migrated to the lower chamber were centrifuged and resuspended into 90 ul of 1×HBSS (Gibco Life Technologies, Langley, OK) with 10 μl of CCK-8 staining solution (Dojindo Molecular Technologies Inc., Rockville, MD). Cells were incubated for 2 hr before measuring absorbance at 450 nm.

B16 cells [4] = test: Apoptosis assay (camptothecin, Annexin V), B16 cells; assay type: cell-based, mouse; settings: 10 nM, 20 μM camptothecin, 4 hr
Description: Apoptosis assay: 1×10^5 B16 cells were cultured in DMEM without serum overnight before addition of 20 μM camptothecin (Abcam, Burlingame, CA) in the presence of BSA or OPN fragments (10 nM). Cells were then incubated for 4 hr before addition of 200 μl of binding buffer. The plate was centrifuged at 400 g for 5 min and supernatant discarded. Annexin V FITC stain (Cayman chemicals, Ann Arbor, MI) was added to the cells and incubated at RT for 10 min in the dark. Cells were centrifuged as described above and 100 μl of binding buffer was added to each cell and fluorescence intensity measured at 485/535 nm (excitation/emission). Apoptotic index was calculated by dividing the camptothecin-treated cells with untreated cells.

B16 cells [5] = test: Cell adhesion assay, B16 cells; assay type: cell-based, mouse; settings: wells coated at 20 nM
Description: Cell adhesion assay: Wells in 96-well plate was coated with either BSA or different OPN fragments at a concentration of 20 nM in coating buffer (Gibco Life Technologies, Langley, OK) and incubated at 4° C. overnight. The plate was then washed thrice with PBS before blocking with 3% BSA for 1 hr. The cells were washed thrice with 1×HBSS containing 0.2 mM MnCl2. 2×10^6 B16 or RAW cells were added to the wells and incubated at 37° C. for 1 hr. Wells were washed and cells fixed with absolute ethanol for 20 min before staining with 0.1% crystal violet. Cells were washed repeatedly with PBS until no violet color was visible, lysed with 0.5% Triton X-100 and absorbance determined at 570 nm.

RAW cells = test: PGE2 assay, RAW cells; assay type: cell-based, mouse; settings: 10 nM
Description: PGE2 assay: 5×10^5 RAW cells were plated onto 6-well plate in serum free medium with either BSA or various OPN fragments (10 nM). Cells were cultured overnight before collecting the media and determining PGE2 by ELISA (Enzo, Farmingdale, NY).

thrombin = thrombin (Homo sapiens, UniProt P00734); test: Thrombin treatment of E. coli produced GST-OPN and GST-OPNR153A, SDS-PAGE; assay type: biochemical; settings: thrombin 10 nM, time course
Description: FIGS. 1A-1D: B16 tumors grow slower in OPN-KO and OPN-KI than WT mice in the flank model. FIG. 1A. Model of OPN cleavages and its functional modulation by thrombin and carboxypeptidase N or B2. OPN-FL=OPN-full length (SEQ ID NO:5); OPN-R=OPN-Arg (SEQ ID NO:6); OPN-L=OPN-Leu (SEQ ID NO:8). DC=dendritic cells. FIG. 1B. Time course of thrombin treatment (10 nM) of E. coli produced GST-OPN and GST-OPNR153A analyzed by SDS-PAGE. FL=full length, NTF=N-terminal fragment, CTF=C-terminal fragment (SEQ ID NO:7). FIG. 1C. Daily determination of B16 tumor volume grown on WT, OPN-KI and OPN-KO mice. FIG. 1D. B16 tumor weight after sacrifice. All data are shown as mean±SEM. Statistical significance was calculated by one-way ANOVA followed by Tukey's multiple comparison test.
The OPN-KI (OPNR153A) mice, similar to OPN-KO mice, were fertile and healthy before challenge, without any phenotypic changes observable in CBC, liver function and kidney function (FIGS. 9 and 10)

[6] = parenteral; particularly limited small cell lung cancers; cited from earlier work
B16 cells [7] = settings: in vivo; cited from earlier work
[8] = OPN-KI or OPN-KO mice, trend, compared to untreated mice of same genotype
[9] = WT mice, compared to control WT mice, 13 days after inoculation

Compound: CCCCCCOC(=O)N=C(N)c1ccc(NCc2nc3cc(C(=O)N(CCC(=O)OCC)c4ccccn4)ccc3n2C)cc1 [DE, dabigatran etexilate]
- melanin content of lungs (B16 cells [1]; [8]): decreased
- pulmonary metastases (B16 cells [1]; [8]): fewer
- melanin content of lungs (B16 cells [1]; [9]): reduced
- metastatic nodules/lung (B16 cells [1]; [9]): fewer
- effect on B16 local tumor growth, weight and volume (in words) (B16 tumors; OPN-KI (and OPN-KO) mice): did not further reduce; also recorded: no effect
- tumor weight after sacrifice (B16 tumors; OPN-KI mice, DE-containing chow, in g): 0.8±0.9
- tumor volume after sacrifice (B16 tumors; OPN-KI mice, DE-containing chow, mean±SEM): 0.73±0.3 cm^3
- B16 tumor growth (in words) (B16 tumors; WT mice): tumor suppression; also recorded: grew slower
- tumor volume after sacrifice (B16 tumors; WT mice, DE-containing chow from 4 days before B16 inoculation until sacrifice, mean±SEM): 1.0±0.2 cm^3
- tumor weight after sacrifice (B16 tumors; WT mice, DE-containing chow, mean±SEM): 1.0 ± 0.2 g

Compound: O=C(NC[C@H]1CN(c2ccc(N3CCOCC3=O)cc2)C(=O)O1)c1ccc(Cl)s1 [rivaroxaban]
- antitumor immunity (in words) [2]: promote antitumor immunity

Compound: OPN-CTF: C-terminal OPN fragment after thrombin cleavage (SEQ ID NO:7) (SKSKKFRR; OPN-CTF)
- B16 chemotaxis/migration relative to OPN-FL (in words: significantly increased or not) (B16 cells [3]): comparable to OPN-FL
- anti-apoptotic effect on B16 cells (in words) (B16 cells [4]): no anti-apoptotic effect

Compound: OPN-FL: recombinant full length osteopontin (SEQ ID NO:5) (RGDSVVYGLRSKSKKFRR; OPN-FL)
- B16 cell migration compared to BSA (in words) (B16 cells [3]): increased migration
- reduction of B16 cell apoptosis compared to BSA (B16 cells [4]): ~3 fold

Compound: OPN-L: OPN-R with C-terminal arginine removed by CPN or CPB2 (SEQ ID NO:8) (RGDSVVYGL; OPN-L)
- B16 chemotaxis/migration relative to OPN-FL (in words: significantly increased or not) (B16 cells [3]): not
- B16 cell adhesion compared to OPN-R (in words) (B16 cells [5]): reduced adhesion
- reduction of B16 cell apoptosis compared to BSA (B16 cells [4]): ~3 fold

Compound: OPN-R: thrombin-cleaved OPN N-terminal fragment ending in Arg (SEQ ID NO:6) (RGDSVVYGLR; OPN-R)
- secretion of PGE2 by RAW cells (in words) (RAW cells): significantly enhanced
- B16 cell migration compared to BSA (in words) (B16 cells [3]): increased migration
- reduction of B16 cell apoptosis compared to BSA (B16 cells [4]): ~3 fold

Compound: OPNR153A: mutant OPN with arginine in the thrombin cleavage site mutated to alanine (R153A), expressed in E. coli
- thrombin cleavage (in words) (thrombin): resistant to thrombin cleavage

Compound: heparin
- survival of cancer patients (in words) [6]: survival benefit

Compound: hirudin
- metastasis of B16 cells (in words) (B16 cells [7]): prevented metastasis
